{"source": "patent US11207283B2", "about": "(priority 2016, dated 2021)", "key": {"[1]": {"tested_on": "GABA-AT", "conditions": "cited from earlier work"}, "[2]": {"target": "T1, human OAT (Homo sapiens, UniProt P04181)", "T1 sequence (P04181 36-439 limits assumed)": "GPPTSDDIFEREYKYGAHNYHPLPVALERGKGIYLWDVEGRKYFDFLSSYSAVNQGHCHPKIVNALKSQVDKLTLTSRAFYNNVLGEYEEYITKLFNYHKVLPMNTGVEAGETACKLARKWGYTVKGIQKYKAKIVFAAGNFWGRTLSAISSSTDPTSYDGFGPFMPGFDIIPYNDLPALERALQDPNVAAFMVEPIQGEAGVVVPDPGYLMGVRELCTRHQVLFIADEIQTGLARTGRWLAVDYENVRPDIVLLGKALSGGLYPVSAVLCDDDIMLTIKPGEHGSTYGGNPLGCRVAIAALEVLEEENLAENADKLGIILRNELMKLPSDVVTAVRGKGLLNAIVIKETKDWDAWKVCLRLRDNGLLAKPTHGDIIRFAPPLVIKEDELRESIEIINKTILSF", "conditions": "cited from earlier work"}, "[3]": {"tested_on": "Type I T. gondii tachyzoites", "test": "Effect of TgOAT inactivators on T. gondii in vitro (YFP RH tachyzoites in HFF)", "format": "cell-based, Toxoplasma gondii", "conditions": "HFF host cells, 72 hours, tested into the millimolar range", "experimental": "HFFs were grown to confluence in black, flat-bottomed 96-well microplates. […] Control triplicates with only fibroblasts and with pyrimethamine and sulfadiazine (the current standard of treatment of T. gondii infection) were also conducted. The cells and parasites were then incubated at 37° C. for 72 hours. Fluorescence was measured using a Bio-Tek Synergy™ H4 Hybrid Multi-Mode Microplate Reader."}, "[4]": {"tested_on": "TgOAT", "conditions": "for KI (inactivation): read-out: KI (inhibition constant of inactivation), 10 mM L-ornithine; for KI (inactivation) / kinact/KI / kinact (rate constant of enzyme inactivation): time-dependent inactivators; for KI (inactivation) / kinact (rate constant of enzyme inactivation): pH 8.0, 37° C.; for activity in inactivating TgOAT (in words): summary of Table 1; for selectivity of inactivation, TgOAT versus GABA-AT and human OAT (in words): compared with literature data on GABA-AT and human OAT; for Ki: read-out: Ki (reversible inhibition), reversible inhibitors, calculated from the IC50 value"}, "[5]": {"tested_on": "P. falciparum parasite, D6 (Sierra Leone)", "test": "Malaria SYBR Green I-based fluorescence (MSF) assay", "format": "cell-based, Plasmodium falciparum", "conditions": "concentrations up to 10000 ng/mL, data not shown"}, "[6]": {"tested_on": "glutamate decarboxylase (GAD)", "conditions": "cited from earlier work"}, "[7]": {"tested_on": "aspartate aminotransferase (AspAT)", "conditions": "cited from earlier work"}}, "data": [{"molecule": "NC(CF)CCC(=O)O", "note": "(stereo not shown) [5-Fluoro-4-aminopentanoic acid, reference compound]", "values": [{"measurement": "activity against GABA-AT (in words)", "setting": "[1]", "value": "very efficient inactivator"}]}, {"molecule": "N[C@H]1C[C@@H](C(=O)O)CC1=C(F)F", "note": "[Compound 1]", "values": [{"measurement": "activity against GABA-AT (in words)", "setting": "[1]", "value": "extremely potent inactivator"}, {"measurement": "activity against human OAT (in words)", "setting": "[2]", "value": "potent inactivator"}, {"measurement": "inhibition of tachyzoite replication in vitro", "setting": "[3]", "value": "no effects on active T. gondii infection"}, {"measurement": "KI (inactivation)", "setting": "[4]", "value": 4.4, "unit": "µM"}, {"measurement": "activity in inactivating TgOAT (in words)", "setting": "[4]", "value": "high activity in inactivating TgOAT"}, {"measurement": "kinact/KI", "setting": "[4]", "value": 41670, "unit": "M⁻¹ s⁻¹"}, {"measurement": "kinact (rate constant of enzyme inactivation)", "setting": "[4]", "value": 11, "unit": "min⁻¹"}, {"measurement": "antimalarial activity in live-cell parasite assay", "setting": "[5]", "value": "no antimalarial activity"}]}, {"molecule": "NC1CC(C(=O)O)CC1=C(C(F)(F)F)C(F)(F)F", "note": "(stereo not shown) [Compound 2]", "values": [{"measurement": "activity against GABA-AT (in words)", "setting": "[1]", "value": "weak reversible inhibitor"}, {"measurement": "activity against human OAT (in words)", "setting": "[2]", "value": "highly potent inactivator"}, {"measurement": "inhibition of tachyzoite replication in vitro", "setting": "[3]", "value": "no effects on active T. gondii infection"}, {"measurement": "KI (inactivation)", "setting": "[4]", "value": 4.8, "unit": "µM"}, {"measurement": "activity in inactivating TgOAT (in words)", "setting": "[4]", "value": "high activity in inactivating TgOAT"}, {"measurement": "kinact/KI", "setting": "[4]", "value": 15300, "unit": "M⁻¹ s⁻¹"}, {"measurement": "kinact (rate constant of enzyme inactivation)", "setting": "[4]", "value": 4.4, "unit": "min⁻¹"}, {"measurement": "antimalarial activity in live-cell parasite assay", "setting": "[5]", "value": "no antimalarial activity"}]}, {"molecule": "NC1CC(C(=O)O)CC1=CC(F)(F)F", "note": "(stereo not shown) [Compound 3]", "values": [{"measurement": "KI (inactivation)", "setting": "[4]", "value": 30, "unit": "µM"}, {"measurement": "kinact/KI", "setting": "[4]", "value": 83.3, "unit": "M⁻¹ s⁻¹"}, {"measurement": "kinact (rate constant of enzyme inactivation)", "setting": "[4]", "value": 0.15, "unit": "min⁻¹"}]}, {"molecule": "NC1CC(C(=O)O)CC1=CC(F)(F)F", "note": "(stereo not shown) [Compound 4]", "values": [{"measurement": "KI (inactivation)", "setting": "[4]", "value": 21, "unit": "µM"}, {"measurement": "kinact/KI", "setting": "[4]", "value": 183, "unit": "M⁻¹ s⁻¹"}, {"measurement": "kinact (rate constant of enzyme inactivation)", "setting": "[4]", "value": 0.23, "unit": "min⁻¹"}]}, {"molecule": "NC1CC(C(=O)O)CC1=C(Cl)Cl", "note": "(stereo not shown) [Compound 5]", "values": [{"measurement": "activity against GABA-AT (in words)", "setting": "[1]", "value": "very weak reversible inhibitor"}, {"measurement": "activity against human OAT (in words)", "setting": "[2]", "value": "very weak reversible inhibitor"}, {"measurement": "inhibition of tachyzoite replication in vitro", "setting": "[3]", "value": "no effects on active T. gondii infection"}, {"measurement": "selectivity of inactivation, TgOAT versus GABA-AT and human OAT (in words)", "setting": "[4]", "value": "high specific inactivation towards TgOAT but not GABA-AT or human OAT"}, {"measurement": "KI (inactivation)", "setting": "[4]", "value": 15, "unit": "µM"}, {"measurement": "activity in inactivating TgOAT (in words)", "setting": "[4]", "value": "high activity in inactivating TgOAT"}, {"measurement": "kinact/KI", "setting": "[4]", "value": 4830, "unit": "M⁻¹ s⁻¹"}, {"measurement": "kinact (rate constant of enzyme inactivation)", "setting": "[4]", "value": 4.4, "unit": "min⁻¹"}, {"measurement": "antimalarial activity in live-cell parasite assay", "setting": "[5]", "value": "no antimalarial activity"}]}, {"molecule": "NC1CC(C(=O)O)C=C1C(F)(F)C(F)(F)F", "note": "(stereo not shown) [Compound 6]", "values": [{"measurement": "KI (inactivation)", "setting": "[4]", "value": 21, "unit": "µM"}, {"measurement": "kinact/KI", "setting": "[4]", "value": 167, "unit": "M⁻¹ s⁻¹"}, {"measurement": "kinact (rate constant of enzyme inactivation)", "setting": "[4]", "value": 0.21, "unit": "min⁻¹"}]}, {"molecule": "NC1CC(C(=O)O)CC1F", "note": "(stereo not shown) [Compound 7]", "values": [{"measurement": "KI (inactivation)", "setting": "[4]", "value": 2100, "unit": "µM"}, {"measurement": "kinact/KI", "setting": "[4]", "value": 86.7, "unit": "M⁻¹ s⁻¹"}, {"measurement": "kinact (rate constant of enzyme inactivation)", "setting": "[4]", "value": 11, "unit": "min⁻¹"}]}, {"molecule": "NC1CC(C(=O)O)CC1(F)F", "note": "(stereo not shown) [Compound 8]", "values": [{"measurement": "KI (inactivation)", "setting": "[4]", "value": 130, "unit": "µM"}, {"measurement": "kinact/KI", "setting": "[4]", "value": 1000, "unit": "M⁻¹ s⁻¹"}, {"measurement": "kinact (rate constant of enzyme inactivation)", "setting": "[4]", "value": 7.8, "unit": "min⁻¹"}, {"measurement": "off-target activity at GAD (in words)", "setting": "[6]", "value": "significant"}]}, {"molecule": "NC1CC(C(=O)O)CC1Br", "note": "(stereo not shown) [Compound 9]", "values": [{"measurement": "KI (inactivation)", "setting": "[4]", "value": 2600, "unit": "µM"}, {"measurement": "kinact/KI", "setting": "[4]", "value": 31.7, "unit": "M⁻¹ s⁻¹"}, {"measurement": "kinact (rate constant of enzyme inactivation)", "setting": "[4]", "value": 5.0, "unit": "min⁻¹"}]}, {"molecule": "NC1C(F)CC(C(=O)O)C1Br", "note": "(stereo not shown) [Compound 10]", "values": [{"measurement": "KI (inactivation)", "setting": "[4]", "value": 110, "unit": "µM"}, {"measurement": "kinact/KI", "setting": "[4]", "value": 583, "unit": "M⁻¹ s⁻¹"}, {"measurement": "kinact (rate constant of enzyme inactivation)", "setting": "[4]", "value": 3.9, "unit": "min⁻¹"}]}, {"molecule": "NCc1c(CC(=O)O)cccc1C(F)(F)F", "note": "[Compound 11]", "values": [{"measurement": "activity against GABA-AT (in words)", "setting": "[1]", "value": "weak reversible inhibitor"}, {"measurement": "activity against human OAT (in words)", "setting": "[2]", "value": "weak inactivator"}, {"measurement": "inhibition of tachyzoite replication in vitro", "setting": "[3]", "value": "no effects on active T. gondii infection"}, {"measurement": "selectivity of inactivation, TgOAT versus GABA-AT and human OAT (in words)", "setting": "[4]", "value": "high specific inactivation towards TgOAT but not GABA-AT or human OAT"}, {"measurement": "KI (inactivation)", "setting": "[4]", "value": 15, "unit": "µM"}, {"measurement": "activity in inactivating TgOAT (in words)", "setting": "[4]", "value": "high activity in inactivating TgOAT"}, {"measurement": "kinact/KI", "setting": "[4]", "value": 6000, "unit": "M⁻¹ s⁻¹"}, {"measurement": "kinact (rate constant of enzyme inactivation)", "setting": "[4]", "value": 5.4, "unit": "min⁻¹"}, {"measurement": "antimalarial activity in live-cell parasite assay", "setting": "[5]", "value": "no antimalarial activity"}]}, {"molecule": "C[C@@H](F)[C@@H](N)CCC(=O)O", "note": "[Compound 12]", "values": [{"measurement": "Ki", "setting": "[4]", "value": 2900, "unit": "µM"}]}, {"molecule": "NCc1cocc1C(=O)O", "note": "[Compound 13]", "values": [{"measurement": "Ki", "setting": "[4]", "value": "> 5000", "unit": "µM"}]}, {"molecule": "NCc1cscc1C(=O)O", "note": "[Compound 14]", "values": [{"measurement": "Ki", "setting": "[4]", "value": 4200, "unit": "µM"}]}, {"molecule": "NCc1csc(C(=O)O)c1", "note": "[Compound 15]", "values": [{"measurement": "Ki", "setting": "[4]", "value": 4900, "unit": "µM"}]}, {"molecule": "NCc1ccc(C(=O)O)s1", "note": "[Compound 16]", "values": [{"measurement": "Ki", "setting": "[4]", "value": "> 5000", "unit": "µM"}]}, {"molecule": "NCc1c[nH]c(C(=O)O)c1", "note": "[Compound 17]", "values": [{"measurement": "Ki", "setting": "[4]", "value": "> 5000", "unit": "µM"}]}, {"molecule": "N[C@H](CF)CCC(=O)O", "note": "[Compound 18, (S)-4-amino-5-fluoropentanoic acid]", "values": [{"measurement": "activity against GABA-AT (in words)", "setting": "[1]", "value": "moderate inactivator"}, {"measurement": "activity against human OAT (in words)", "setting": "[2]", "value": "moderate inactivator"}, {"measurement": "inhibition of tachyzoite replication in vitro", "setting": "[3]", "value": "no effects on active T. gondii infection"}, {"measurement": "selectivity of inactivation, TgOAT versus GABA-AT and human OAT (in words)", "setting": "[4]", "value": "high specific inactivation towards TgOAT but not GABA-AT or human OAT"}, {"measurement": "KI (inactivation)", "setting": "[4]", "value": 4.6, "unit": "µM"}, {"measurement": "activity in inactivating TgOAT (in words)", "setting": "[4]", "value": "high activity in inactivating TgOAT"}, {"measurement": "kinact/KI", "setting": "[4]", "value": 36670, "unit": "M⁻¹ s⁻¹"}, {"measurement": "kinact (rate constant of enzyme inactivation)", "setting": "[4]", "value": 10, "unit": "min⁻¹"}, {"measurement": "antimalarial activity in live-cell parasite assay", "setting": "[5]", "value": "no antimalarial activity"}]}, {"molecule": "C=CC(N)CCC(=O)O", "note": "(stereo not shown) [Compound 22, 4-am inohex-5-enoic acid, reference compound]", "values": [{"measurement": "off-target activity at AspAT (in words)", "setting": "[7]", "value": "weakly affects"}, {"measurement": "KI (inactivation)", "setting": "[4]", "value": 440, "unit": "µM"}, {"measurement": "kinact/KI", "setting": "[4]", "value": 383, "unit": "M⁻¹ s⁻¹"}, {"measurement": "kinact (rate constant of enzyme inactivation)", "setting": "[4]", "value": 9.9, "unit": "min⁻¹"}, {"measurement": "off-target activity at GAD (in words)", "setting": "[6]", "value": "no activity"}]}, {"molecule": "gabaculine [Compound 23, reference compound]", "values": [{"measurement": "activity against GABA-AT (in words)", "setting": "[1]", "value": "equally potent irreversible inhibitor"}, {"measurement": "KI (inactivation)", "setting": "[4]", "value": 0.82, "unit": "µM"}]}]}
